From PMC6747015, “Structure–function study of a novel inhibitor of the casein kinase 1 family in Arabidopsis thaliana” (Plant Direct, 2019)

Experiments:
PRR5 and TOC1 = PRR5 and TOC1 fusion protein accumulation by Western blotting; assay type: in vivo, Arabidopsis
Experimental: Four‐day‐old seedlings grown under 12‐hr light/12‐hr dark (LD) conditions were transferred into a 96‐well plate with a dropper. Seedlings were treated with 20 µl of MS liquid containing 2% sucrose and AMI‐331 at 2, 10, or 50 µM with a final concentration of 5% (v/v) DMSO. As a control experiment, MS containing 2% sucrose and 5% DMSO was used to treat the seedlings. Seedlings were kept under constant light (L) or constant dark (D) for 24 hr, harvested, and kept frozen until proteins were extracted. Frozen samples were crushed with zirconia beads (Tomy ZB‐50) in a Tissue Lyser II (Qiagen). Detection of PRR5‐ and TOC1‐fusion proteins was performed using a 10%–20% gradient acrylamide gel (198‐15041, Wako) as previously described (Nakamichi et al., 2012). Anti‐FLAG antibody (F3165, Sigma) and anti‐VP antibody (ab4808, Abcam) were used to detect FLAG‐fusion and VP‐fusion proteins, respectively.
It had previously been shown that CKL4 phosphorylates PSEUDO‐RESPONSE REGULATOR 5 (PRR5), a clock‐associated transcription factor in vitro, and that treatment with the CK1 inhibitor PHA767491 results in over‐accumulation of PRR5 in vivo (Uehara et al., 2019). As a further test of whether the period‐lengthening activity of AMI‐331 is related to the inhibition of CK1 in vivo, we measured the amounts of PRR5 in plants treated with AMI‐331. Seedlings expressing fusion protein PRR5‐FLAG under control of the cauliflower mosaic virus 35S promoter (35Spro:PRR5‐FLAG) were grown under constant light conditions for 4 days, treated with AMI‐331, and kept constantly in the dark for one day. In control experiments (i.e., without AMI‐331), PRR5‐FLAG protein amounts were lower under dark compared to light conditions, due to ZTL‐dependent degradation, as described in previously (Fujiwara et al., 2008; Kiba, Henriques, Sakakibara, & Chua, 2007). […] Since PHA767491 treatment also attenuates degradation of TIMING OF CAB EXPRESSION 1 (TOC1, also called as PRR1) under dark conditions (Uehara et al., 2019), we tested whether AMI‐331 affects TOC1 protein accumulation in vivo. TOC1 amounts were higher in AMI‐331‐treated plants (Figures 3c, S2).

CKL9 (AT1G03930) = molecular target: T1, CKL9 (AT1G03930) (Arabidopsis thaliana, UniProt Q9ZWB3); test: AMI‐329 bead binding with AMI‐331 competitor, CKL9
T1 construct: from tissue; host or cells: Arabidopsis seedlings, two weeks old
Experimental: Screening for proteins bound to AMI‐329 beads was done by a method similar to what has previously been described (Uehara et al., 2019). Briefly, two‐week‐old seedlings grown under LD conditions were harvested at time points ZT2, ZT6, ZT9, and ZT17, and stored at −80°C. Proteins from the frozen plant samples were incubated with 0, 5, or 50 µM of AMI‐331 at 4°C for 30 min with rotary mixing. Two technical replicates were used for each experiment. PBS‐washed AMI‐329 beads were added to the protein samples and gently rotated at 4°C for 1 hr. AMI‐329 bead resins were washed with bead buffer (Uehara et al., 2019) six times. The washed resins were suspended in SDS sample buffer and boiled for 8 min. Protein samples were in‐gel‐digested as previously described (Uehara et al., 2019). Peptides were analyzed with a Q Exactive hybrid quadrupole‐orbitrap mass spectrometer (Thermo Fisher Scientific), as described previously (Uehara et al., 2019). […]
However, another possible mechanism for the strong AMI‐331 biological activity in vivo is that it targets proteins other than the CK1 family for period lengthening. […] It is noteworthy that kinase AT4G08800 is very similar to the CKL family, but the ATP‐binding pocket of mammalian CK1 as determined by its crystal structure (Shinohara et al., 2017) was absent from AT4G08800, as shown in an Araport 11 model (https://www.araport.org). […]

T1 sequence (Q9ZWB3 whole entry): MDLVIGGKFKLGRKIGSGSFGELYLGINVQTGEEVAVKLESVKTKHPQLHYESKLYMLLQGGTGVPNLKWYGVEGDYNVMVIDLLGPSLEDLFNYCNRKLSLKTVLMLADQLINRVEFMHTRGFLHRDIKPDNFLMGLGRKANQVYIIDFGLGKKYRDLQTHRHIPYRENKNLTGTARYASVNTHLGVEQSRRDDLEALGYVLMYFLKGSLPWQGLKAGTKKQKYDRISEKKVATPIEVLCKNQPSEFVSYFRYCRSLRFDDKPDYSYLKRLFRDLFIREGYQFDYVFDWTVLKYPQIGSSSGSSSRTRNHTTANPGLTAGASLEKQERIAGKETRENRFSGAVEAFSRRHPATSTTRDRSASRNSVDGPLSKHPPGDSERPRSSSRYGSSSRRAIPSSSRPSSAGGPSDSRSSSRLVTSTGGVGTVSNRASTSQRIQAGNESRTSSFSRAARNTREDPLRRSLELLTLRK

For `C#CCn1c2c(c(Br)c1-c1ccncc1)C(=O)NCC2.Cl` [AMI‐331], the “PRR5‐FLAG protein amount” value (PRR5 and TOC1; 35Spro:PRR5‐FLAG seedlings, dark conditions) was “over‐accumulation of PRR5‐FLAG”, the “PRR5‐VP protein amount” value (PRR5 and TOC1; 35Spro:PRR5‐VP seedlings, dose‐dependent) was “accumulation of PRR5‐VP” and the TOC1 protein amount (PRR5 and TOC1; 35Spro:TOC1‐VP seedlings) was “higher”. For the same molecule, the “Effective concentration for increasing PRR5 and TOC1, times lower than required for PHA767491” value (PRR5 and TOC1; in vivo) was 10–50 times, the “Effective concentrations for PRR5 or TOC1 accumulation” value (PRR5 and TOC1; seedlings, 24 hr in the dark) was 10 to 50 µM and the “Spectra (PSMs) AMI‐329 beads bound” value (CKL9 (AT1G03930); competitor AMI‐331 5 µM) was 1 PSMs. For the same molecule, the “Spectra (PSMs) AMI‐329 beads bound” value (CKL9 (AT1G03930); competitor AMI‐331 50 µM) was 0 PSMs.
